Assay results as given in patent publication US10646469B2, “Substituted indole derivatives as dengue viral replication inhibitors” (Janssen Pharmaceuticals, Inc., priority 2016, dated 2020).

Experiments:
DENV-2 16681 strain = assay: DENV-2 antiviral assay (eGFP-labeled virus in Vero cells); format: cell-based, Dengue virus; details: DENV-2 16681 eGFP, MOI 0.5, 3 days
Method: The antiviral activity of all the compounds of the invention was tested against the DENV-2 16681 strain which was labeled with enhanced green fluorescent protein (eGPF). The culture medium consists of minimal essential medium supplemented with 2% of heat-inactivated fetal calf serum, 0.04% gentamycin (50 mg/mL) and 2 mM of L-glutamine. Vero cells, obtained from ECACC, were suspended in culture medium and 25 μL was added to 384-well plates (2500 cells/well), which already contain the antiviral compounds. Typically, these plates contain a 5-fold serial dilution of 9 dilution steps of the test compound at 200 times the final concentration in 100% DMSO (200 nL). […] Finally, each plate contains wells which are assigned as virus controls (containing cells and virus in the absence of compound), cell controls (containing cells in the absence of virus and compound) and medium controls (containing medium in the absence of cells, virus and compounds). To the wells assigned as medium control, 25 μL of culture medium was added instead of Vero cells. Once the cells were added to the plates, the plates were incubated for 30 minutes at room temperature to allow the cells to distribute evenly within the wells. Next, the plates were incubated in a fully humidified incubator (37° C., 5% CO2) until the next day. Then, DENV-2 strain 16681, labeled with eGFP, was added at a multiplicity of infection (MOI) of 0.5. Therefore, 15 μL of virus suspension was added to all the wells containing test compound and to the wells assigned as virus control. In parallel, 15 μL of culture medium was added to the medium and cell controls. Next, the plates were incubated for 3 days in a fully humidified incubator (37° C., 5% CO2). At the day of the read out, the eGFP fluorescence was measured using an automated fluorescence microscope at 488 nm (blue laser). Using an in-house LIMS system, inhibition dose response curves for each compound were calculated and the half maximal effective concentration (EC50) was determined. Therefore, the percent inhibition (I) for every test concentration is calculated using the following formula: I=100*([…])/(SVC−SCC); ST, SCC and SVC are the amount of eGFP signal in the test compound, cell control and virus control wells, respectively. The EC50 represents the concentration of a compound at which the virus replication is inhibited with 50%, as measured by a 50% reduction of the eGFP fluorescent intensity compared to the virus control. The EC50 is calculated using linear interpolation (Table 1).

[1] = Toxicity on the same plates (ATPlite cell viability); details: African green monkey, CC50, Vero cells, same plates as DENV-2 antiviral assay
Vero cells = assay: as above; details: Vero cells, same plates as DENV-2 antiviral assay
[2] = Dengue virus, DENV2, Vero, 72 h

SMILES | EC50 (DENV-2 16681 strain) | CC50 [1] | CC50 (Vero cells) | EC50 (DENV-2 16681 strain; [2])
COc1cc(NC(C(=O)c2c[nH]c3ccc(OC(F)(F)F)cc23)c2ccc(F)cc2OC)cc(OCCO)c1 (single isomer, unassigned) [Compound 5A, 2-(4-fluoro-2-methoxyphenyl)-2-((3-(2-hydroxyethoxy)-5-methoxyphenyl)amino)-1-(5-(trifluoromethoxy)-1H-indol-3-yl)ethanone] | 30 nM | 5400 nM | – | –
COc1cc(NC(C(=O)c2c[nH]c3cc(OC)c(C(F)(F)F)cc23)c2ccc(F)cc2OC)cc(OCCO)c1 (single isomer, unassigned) [Compound 2B, 2-(4-fluoro-2-methoxyphenyl)-2-((3-(2-hydroxyethoxy)-5-methoxyphenyl)amino)-1-(6-methoxy-5-(trifluoromethyl)-1H-indol-3-yl)ethanone] | 24 nM | – | 6800 nM | –
COc1cc(NC(C(=O)c2c[nH]c3cc(OC)c(OC(F)(F)F)cc23)c2ccc(Cl)cc2OC)cc(OCCO)c1 (single isomer, unassigned) [Compound 14B, 2-(4-chloro-2-methoxyphenyl)-2-((3-(2-hydroxyethoxy)-5-methoxyphenyl)amino)-1-(6-methoxy-5-(trifluoromethoxy)-1H-indol-3-yl)ethanone] | 7.2 nM | – | 5400 nM | –
COc1cc(NC(C(=O)c2c[nH]c3ccc(OC(F)(F)F)cc23)c2ccc(Cl)cc2OC)cc(OCCO)c1 (single isomer, unassigned) [Compound 13B, 2-(4-chloro-2-methoxyphenyl)-2-((3-(2-hydroxyethoxy)-5-methoxyphenyl)amino)-1-(5-(trifluoromethoxy)-1H-indol-3-yl)ethanone] | 7.2 nM | – | 5800 nM | –
COc1cc(NC(C(=O)c2c[nH]c3ccc(C(F)(F)F)cc23)c2ccc(Cl)cc2OC)cc(OCCO)c1 (single isomer, unassigned) [Compound 9A, 2-(4-chloro-2-methoxyphenyl)-2-((3-(2-hydroxyethoxy)-5-methoxyphenyl)amino)-1-(5-(trifluoromethyl)-1H-indol-3-yl)ethanone] | 12 nM | 3500 nM | – | –
COc1cc(NC(C(=O)c2c[nH]c3cc(F)c(C(F)(F)F)cc23)c2ccc(Cl)cc2OC)cc(OCCO)c1 (single isomer, unassigned) [Compound 11B, 2-(4-chloro-2-methoxyphenyl)-1-(6-fluoro-5-(trifluoromethyl)-1H-indol-3-yl)-2-((3-(2-hydroxyethoxy)-5-methoxyphenyl)amino)ethanone] | 15 nM | – | 2700 nM | –
COc1cc(NC(C(=O)c2c[nH]c3c(C)cc(OC(F)(F)F)cc23)c2ccc(F)cc2OC)cc(OCCO)c1 (single isomer, unassigned) [Compound 8B, 2-(4-fluoro-2-methoxyphenyl)-2-((3-(2-hydroxyethoxy)-5-methoxyphenyl)amino)-1-(7-methyl-5-(trifluoromethoxy)-1H-indol-3-yl)ethanone] | 31 nM | – | 6000 nM | –
COc1cc(NC(C(=O)c2c[nH]c3cc(OC)c(C(F)(F)F)cc23)c2ccc(Cl)cc2OC)cc(OCCO)c1 (racemic) [Compound 10, 2-(4-chloro-2-methoxyphenyl)-2-((3-(2-hydroxyethoxy)-5-methoxyphenyl)amino)-1-(6-methoxy-5-(trifluoromethyl)-1H-indol-3-yl)ethanone] | – | 3200 nM | – | 0.27 nM
COc1cc(NC(C(=O)c2c[nH]c3c(C)cc(OC(F)(F)F)cc23)c2ccc(F)cc2OC)cc(OCCO)c1 (racemic) [Compound 8, 2-(4-fluoro-2-methoxyphenyl)-2-((3-(2-hydroxyethoxy)-5-methoxyphenyl)amino)-1-(7-methyl-5-(trifluoromethoxy)-1H-indol-3-yl)ethanone] | – | 4700 nM | – | 0.41 nM
COc1cc(NC(C(=O)c2c[nH]c3cc(F)c(OC(F)(F)F)cc23)c2ccc(Cl)cc2OC)cc(OCCO)c1 (single isomer, unassigned) [Compound 15A, 2-(4-chloro-2-methoxyphenyl)-1-(6-fluoro-5-(trifluoromethoxy)-1H-indol-3-yl)-2-((3-(2-hydroxyethoxy)-5-methoxyphenyl)amino)ethanone] | 9.9 nM | 3800 nM | – | –
COc1cc(NC(C(=O)c2c[nH]c3ccc(OC(F)(F)F)cc23)c2ccc(F)cc2OC)cc(OCCO)c1 (racemic) [Compound 5, 2-(4-fluoro-2-methoxyphenyl)-2-((3-(2-hydroxyethoxy)-5-methoxyphenyl)amino)-1-(5-(trifluoromethoxy)-1H-indol-3-yl)ethanone] | – | 4500 nM | – | 0.5 nM
COc1cc(NC(C(=O)c2c[nH]c3c(C)cc(C(F)(F)F)cc23)c2ccc(F)cc2OC)cc(OCCO)c1 (single isomer, unassigned) [Compound 4A, 2-(4-fluoro-2-methoxyphenyl)-2-((3-(2-hydroxyethoxy)-5-methoxyphenyl)amino)-1-(7-methyl-5-(trifluoromethyl)-1H-indol-3-yl)ethanone] | 63 nM | – | 11000 nM | –
COc1cc(NC(C(=O)c2c[nH]c3cc(F)c(C(F)(F)F)cc23)c2ccc(F)cc2OC)cc(OCCO)c1 (racemic) [Compound 3, 2-(4-fluoro-2-methoxyphenyl)-1-(6-fluoro-5-(trifluoromethyl)-1H-indol-3-yl)-2-((3-(2-hydroxyethoxy)-5-methoxyphenyl)amino)ethanone] | – | 3000 nM | – | 0.99 nM
COc1cc(NC(C(=O)c2c[nH]c3c(C)cc(C(F)(F)F)cc23)c2ccc(F)cc2OC)cc(OCCO)c1 (racemic) [Compound 4, 2-(4-fluoro-2-methoxyphenyl)-2-((3-(2-hydroxyethoxy)-5-methoxyphenyl)amino)-1-(7-methyl-5-(trifluoromethyl)-1H-indol-3-yl)ethanone] | – | 6100 nM | – | 0.62 nM
COc1cc(NC(C(=O)c2c[nH]c3c(C)cc(C(F)(F)F)cc23)c2ccc(Cl)cc2OC)cc(OCCO)c1 (single isomer, unassigned) [Compound 12B, 2-(4-chloro-2-methoxyphenyl)-2-((3-(2-hydroxyethoxy)-5-methoxyphenyl)amino)-1-(7-methyl-5-(trifluoromethyl)-1H-indol-3-yl)ethanone] | 38 nM | – | 11000 nM | –
COc1cc(NC(C(=O)c2c[nH]c3ccc(C(F)(F)F)cc23)c2ccc(F)cc2OC)cc(OCCO)c1 (single isomer, unassigned) [Compound 1A, 2-(4-fluoro-2-methoxyphenyl)-2-((3-(2-hydroxyethoxy)-5-methoxyphenyl)amino)-1-(5-(trifluoromethyl)-1H-indol-3-yl)ethanone] | 64 nM | – | 6800 nM | –
COc1cc(NC(C(=O)c2c[nH]c3cc(F)c(C(F)(F)F)cc23)c2ccc(F)cc2OC)cc(OCCO)c1 (single isomer, unassigned) [Compound 3B, 2-(4-fluoro-2-methoxyphenyl)-1-(6-fluoro-5-(trifluoromethyl)-1H-indol-3-yl)-2-((3-(2-hydroxyethoxy)-5-methoxyphenyl)amino)ethanone] | 15 nM | – | 7800 nM | –
COc1cc(NC(C(=O)c2c[nH]c3cc(OC)c(OC(F)(F)F)cc23)c2ccc(F)cc2OC)cc(OCCO)c1 (single isomer, unassigned) [Compound 6B, 2-(4-fluoro-2-methoxyphenyl)-2-((3-(2-hydroxyethoxy)-5-methoxyphenyl)amino)-1-(6-methoxy-5-(trifluoromethoxy)-1H-indol-3-yl)ethanone] | 98 nM | – | 10000 nM | –
COc1cc(NC(C(=O)c2c[nH]c3cc(F)c(OC(F)(F)F)cc23)c2ccc(F)cc2OC)cc(OCCO)c1 (single isomer, unassigned) [Compound 7A, 2-(4-fluoro-2-methoxyphenyl)-1-(6-fluoro-5-(trifluoromethoxy)-1H-indol-3-yl)-2-((3-(2-hydroxyethoxy)-5-methoxyphenyl)amino)ethanone] | 25 nM | – | 6700 nM | –
COc1cc(NC(C(=O)c2c[nH]c3c(C)cc(OC(F)(F)F)cc23)c2ccc(Cl)cc2OC)cc(OCCO)c1 (single isomer, unassigned) [Compound 16B, 2-(4-chloro-2-methoxyphenyl)-2-((3-(2-hydroxyethoxy)-5-methoxyphenyl)amino)-1-(7-methyl-5-(trifluoromethoxy)-1H-indol-3-yl)ethanone] | 15 nM | – | 3600 nM | –
